Assay results as given in article PMC9964746, “Mechanism of Action and Structure–Activity Relationships of Tetracyclic Small Molecules Acting as Universal Positive Allosteric Modulators of the Cholecystokinin Receptor” (Membranes, 2023).
“And” between values parts separate entries of the source, which are not always exact repeats. Equal entries are not always repeated.

Columns and labels:
Assay type in all cases: cell-based
CCK1R [1] = molecular target: T1, CCK1R (Homo sapiens, UniProt P32238); assay: IP-One accumulation TR-FRET assay, PAM format, HEK-293 CCK1R cells; design: expressed in transfected cells; host or cells: HEK-293; conditions: for Emax: HEK293, relative to CCK control; for Emax / CCK1R PAM (IP-One) Score (activity score = normalized Emax × pEC50) / EC50: HEK-293 CCK1R cells; for Emax / CCK1R PAM (IP-One) Score (activity score = normalized Emax × pEC50): PAM format; for Emax / EC50: average ± SD; for EC50: PAM format with EC20 CCK
T1 sequence (P32238 1-428): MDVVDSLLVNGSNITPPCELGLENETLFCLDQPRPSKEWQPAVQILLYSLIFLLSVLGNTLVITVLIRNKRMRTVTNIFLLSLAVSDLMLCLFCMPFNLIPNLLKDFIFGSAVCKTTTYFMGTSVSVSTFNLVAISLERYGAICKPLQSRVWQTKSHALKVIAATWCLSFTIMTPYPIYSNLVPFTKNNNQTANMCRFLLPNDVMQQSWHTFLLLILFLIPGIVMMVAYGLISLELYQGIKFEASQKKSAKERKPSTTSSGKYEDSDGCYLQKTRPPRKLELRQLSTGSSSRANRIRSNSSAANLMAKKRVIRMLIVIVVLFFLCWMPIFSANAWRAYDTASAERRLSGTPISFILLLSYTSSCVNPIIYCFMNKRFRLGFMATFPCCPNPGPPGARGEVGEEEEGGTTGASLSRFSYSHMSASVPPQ
Protocol: (§1) For structure–activity relationship studies, we performed myo-inositol-1-phosphate (IP-One) accumulation assays with TR-FRET technology applied to the HEK-293 cell line overexpressing CCK1Rs, as we had described in our high throughput screening effort. In brief, thawed cryopreserved cell stocks were re-suspended in IP-One assay media consisting of phenol-red free DMEM (Corning, Corning, NY, USA, #17-205-CV) with 10% FBS, 1% penicillin (10,000 units)/streptomycin (10 mg) (Pen/Strep, Thermo Fisher Scientific, Waltham, MA, USA, Gibco #15140122), and 1% L-glutamine (200 mM) (Gibco #25030081) and diluted to required cell densities. Then, the cell suspension was dispensed into a 1536-well tissue culture microplate (Corning, #3727), and the plate was incubated overnight at 37 °C and 5% CO^2. After 16–20 h, DMSO or compounds were added with an Echo liquid handler (Labcyte, San Jose, CA, USA), resulting in a top final compound concentration of 50 µM diluted 2-fold for 16-point dose–responses. For the positive allosteric modulator (PAM) format, orthosteric stimulator (CCK) dilutions for control wells were prepared in assay media containing 150 mM lithium chloride (LiCl, 50 mM final, Sigma-Aldrich, St Louis, MO, USA, #L7026). After a 30 min incubation of test compounds at 37 °C and 5% CO2, orthosteric stimulator dilutions (for PAM format) or equivalent dilutions of DMSO (for agonist format) were added to designated wells using BioRaptr (Beckman Coulter, Brea, CA, USA). In addition, CCK control ligand dilutions were included on each test plate. After that, the plate was incubated for 1 h at 37 °C and 5% CO^2 and equilibrated to room temperature. Detection reagents from the IP-One Gq detection kit from Cisbio (Cisbio US Inc., Bedford, MA, USA, #62IPAPEJ) were added, and after 1 h at RT, IP-One content was measured with a PHERAstar FSX microplate reader (BMG Labtech, Ortenberg, Germany). Control ligand dose–responses were analyzed using GraphPad Prism 9.3.1 (San Diego, CA, USA) to validate adequate control and test well concentrations for positive allosteric modulation (PAM) and agonist formats. Dose–response curves were performed as 16-point 2-fold dilutions in duplicates in at least three independent experiments. Large data sets were uploaded and analyzed with CBIS (Chemical and Biology Information System software, ChemInnovation Software, Inc., San Diego, CA, USA). Further data analysis for detailed SAR studies was conducted using the D360 software (Certara).
(§2) The potency and efficacy data for these compounds were used to calculate their activity scores using the following formula: Activity Score = normalized Emax × pEC50. Normalized Emax represents the efficacy of the compound as a fractional response relative to that of the CCK control ligand. pEC50 represents the positive logarithmic value of compound EC50 concentrations in (M).

CCK1R [2] = molecular target: T1, CCK1R; assay: IP-One accumulation TR-FRET assay, agonist format, HEK-293 CCK1R cells; design: expressed in transfected cells; host or cells: HEK-293; conditions: for Emax: HEK293, relative to CCK control, read-out: CCK1R Ago (IP-One) Emax
Protocol: as §1, §2

[3] = molecular target: T2, vasopressin-2 receptor (AVP2R) (Homo sapiens, UniProt P30518); assay: AVP2R cAMP HTRF accumulation assay; conditions: for AVP2R PAM (cAMP) Score (activity score = normalized Emax × pEC50) / EC50 / Emax: CHO-K1 AVP2R cells; for EC50 / Emax: PAM format with vasopressin, original hits: agonist and PAM data combined, average ± SD
T2 construct: expressed in transfected cells; host or cells: CHO-K1 (PAM format); HEK-293 (agonist format)
T2 sequence (P30518 whole entry): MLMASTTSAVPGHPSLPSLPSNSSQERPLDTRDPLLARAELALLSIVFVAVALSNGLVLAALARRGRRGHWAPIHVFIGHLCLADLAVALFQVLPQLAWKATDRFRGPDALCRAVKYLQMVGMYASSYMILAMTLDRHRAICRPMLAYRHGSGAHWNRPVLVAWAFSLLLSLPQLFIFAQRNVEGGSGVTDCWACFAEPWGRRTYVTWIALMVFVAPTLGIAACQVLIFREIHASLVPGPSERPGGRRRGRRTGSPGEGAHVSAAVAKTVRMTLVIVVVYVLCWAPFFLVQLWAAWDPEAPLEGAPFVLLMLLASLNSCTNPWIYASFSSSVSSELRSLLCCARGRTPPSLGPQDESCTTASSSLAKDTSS
Protocol: Possible off-target biological effects. […] Here, we tested them at the vasopressin-2 receptor (AVP2R), representing a class A GPCR structurally related to CCK1R, which is coupled to Gs. The activity at AVP2R was tested using AVP2R-overexpressing CHO-K1 (PAM format) or HEK-293 (agonist format) cells, stimulating the cells with vasopressin. Original hits were tested in both agonist and PAM formats. Since all recognized compound responses were present in both formats, we continued to screen analogs in only the PAM format (also able to capture agonist effects) in CHO-K1 AVP2R cells for potential enhanced sensitivity. The dose–response data sets for original hits were combined, as the PAM and agonist effects were indistinguishable. In brief, arginine vasopressin (AVP) orthosteric stimulator dilutions and ligand and compound dose–response titrations in DMSO were transferred onto a 1536-well plate (Corning #3725) using an Echo liquid handler (Labcyte). Thawed cryopreserved cell stocks were diluted in stimulation buffer consisting of HBSS (Hank’s Balanced Salt Solution with Ca^2+ and Mg^2+, Gibco #24020117), 5 mM HEPES (hydroxyethyl piperazineethanesulfonic acid), 0.5 mM IBMX (3-isobutyl-1-methylxanthine, Sigma-Aldrich), and 0.075% BSA (7.5% DTPA-purified bovine serum albumin, PerkinElmer). The resulting cell suspension was added to the microplate and incubated with test compounds at room temperature for 30 min. Then, the detection reagents from the Cisbio cAMP Gs Dynamic HTRF detection kit were added. The plate was kept at room temperature for 30 min and read on a PHERAstar FSX microplate reader. Dose–response curves were performed as 16-point 2-fold dilutions in duplicate in at least two independent experiments.

Compound | Emax (CCK1R [1]) | CCK1R PAM (IP-One) Score (activity score = normalized Emax × pEC50) (CCK1R [1]) | EC50 (CCK1R [1]) | CCK1R Ago (IP-One) Score (activity score = normalized Emax × pEC50) (CCK1R [2]) | Emax (CCK1R [2]; average ± SD) | EC50 (CCK1R [2]; average ± SD, read-out: CCK1R Ago (IP-One) EC50) | AVP2R PAM (cAMP) Score (activity score = normalized Emax × pEC50) ([3]; PAM format) | EC50 [3] | Emax [3] | CCK1R IP-One activity (in words) (CCK1R [1]; PAM and agonist formats) | Log(Rmax/R50) (CCK1R [1]; CCK1R IP-One PAM assay) | AVP2R cAMP response (in words) ([3]; PAM format)
CN(C)CCCNc1nnnc2c1sc1nc(N3CCCCC3)c3c(c12)CCCC3 [CMP-23] | 38 ± 13% | 1.86 | 9.6 ± 3.6 µM | 1.85 | 41 ± 1% | 30 ± 4.9 µM | 2.9 and 2.93 | 3.1 ± 1.3 µM | 53 ± 3% |  |  | 
CN(C)CCNc1nnnc2c1sc1nc(N3CCCCC3)c3c(c12)CCCC3 [CMP-27] | 38 ± 14% | 1.7 | 18.4 ± 8.1 µM | 0 | 0% |  | 3.5 and 3.51 | 9.1 ± 1 µM | 70 ± 4% |  |  | 
CCCc1nc2oc3c(N4CCN(CCO)CC4)ncnc3c2c2c1CCCC2 [CMP-30] | 36 ± 16% | 1.55 | 27.1 ± 10.7 µM | 0 |  |  | 1.52 | 5.9 ± 3.8 µM | 29% |  |  | 
CN1CCN(c2ncnc3c2sc2nc(N4CCCCC4)c4c(c23)CCCC4)CC1 [CMP-31] | 35 ± 14% | 1.5 and 1.54 | 29.6 ± 1.8 µM | 0 | 0% |  | 1.26 | 5.4 ± 1.7 µM | 24 ± 3% |  |  | 
CCCCc1nc2sc3c(NCCN4CCOCC4)ncnc3c2c2c1CCCC2 [CMP-32] | 41 ± 34% | 1.52 | 23.9 ± 25.8 µM | 0 |  |  | 1.67 | 9.3 ± 11.1 µM | 33 ± 26% |  |  | 
CCN(CC)CCNc1ncnc2c1oc1nc(CC(C)C)c3c(c12)CCC3 [CMP-33] | 35 ± 19% | 1.51 | 18.8 ± 7.7 µM | 0 |  |  | 1.60 | 21 ± 6.5 µM | 34 ± 1% |  |  | 
CC(C)Cc1nc2sc3c(NCCN4CCOCC4)ncnc3c2c2c1CCCC2 [CMP-34] | 34 ± 13% | 1.50 | 29 ± 13.1 µM | 0 |  |  | 2.13 | 7.8 ± 4 µM | 42 ± 17% |  |  | 
CN(C)CCNc1ncnc2c1sc1nc(N3CCCCC3)c3c(c12)CCCC3 [CMP-35] | 36 ± 20% | 1.5 and 1.49 | 31.3 ± 14.9 µM | 0 | 0% |  | 1.6 and 1.59 | 7.9 ± 2.5 µM | 31% |  |  | 
CCCc1nc2oc3c(NCCCN(CC)CC)ncnc3c2c2c1CCCC2 [CMP-36] | 25 ± 10% | 1.32 | 3.3 ± 5.4 µM | 0 |  |  | 1.41 | 6.1 ± 2.8 µM | 27 ± 20% |  |  | 
OCCN1CCN(c2ncnc3c2sc2nc(-c4ccccc4)c4c(c23)CCC4)CC1 [CMP-37] | 28 ± 9% | 1.26 | 31.7 ± 1.2 µM | 0 | 0% |  | 0 |  | 0% | loss of activities across all formats |  | 
CCCc1nc2sc3c(SC)ncnc3c2c2c1CCCC2 [CMP-38] | 20 ± 7.6% | 1.0 and 1.01 | 7.6 ± 3.3 µM | 0 | 0% |  | 0 |  | 0% |  | 4.4 | 
COc1ccc(NC(=O)CSc2ncnc3c2sc2nc(N4CCOCC4)c4c(c23)CCCC4)cc1 [CMP-40] | 0% | 0 |  | 0 | 0% |  | 5.33 | 2.9 ± 0.1 µM | 96 ± 9% |  |  | strong activation of AVP2R-mediated cAMP accumulation
